From US5814612A, “Retinol derivatives and uses thereof” (priority 1992, dated 1998)
Where two headings read alike, the source gives them in different places.

Tests used:
CD4^+ T lymphocytes = assay: Proliferation of anti-CD3 activated CD4+ T lymphocytes; assay type: cell-based, BALB/c mouse
From the text: (§1) Growth curves of lymph node T cells depleted of antigen-presenting cells (FIG. 17A) with and without 10^-6 M retinol at 2×10^5 and 5×10^4 cells/well. (FIG. 17B) Dose-responses elicited by different retinoids in cultures of lymph node T cells depleted of antigen-presenting cells. Also shown are the growth curves of CD4^+ (FIG. 17C) and CD8^+ T lymphocytes (FIG. 17D) in the presence of either retinol, 14HRR, human serum or in their absence.
(§2) T lymphocytes, purified as described, 5×10^4 /well, were activated with immobilized anti-CD3 antibody in ITLB medium. The indicated amounts of retinoids or human serum were added at initiation of cultures. […] 14HRR was added every 12 hours. DNA synthesis was measured by a 4 hour pulse with tritiated thymidine. SDs were ≤17%.
(§3) Mature T cells were obtained from pooled intestinal, axillary, inguinal and submandibular lymph nodes of 4 to 10-week-old BALB/c mice. To fractionate cells into CD4 and CD8 subsets and at the same time remove APC, a combination of adherence and complement lysis was used as follows:
(§4) The cell suspension in a volume of 2 ml was applied to a nylon wool column (40) (0.6 g of washed nylon fibers in the barrel of a 10 ml syringe) and incubated at 37° C. for 40 min. […] The success of the enrichment procedures was monitored cytofluorimetrically using FITC-conjugated anti-CD8 and PE-conjugated anti-CD4. […]

lymph node T cells = assay: Proliferation of anti-CD3 activated lymph node T cells; assay type: cell-based, BALB/c mouse
From the text: as §1, §2, §3, §4
Cells were cultured in serum-free medium, referred to as ITLB, containing RPMI 1640 supplemented with 8×10^-7 M insulin (5 μg/ml), 7×10^-8 M transferrin (5 μg/ml), 2×10^-6 M linoleic acid, 2×10^-6 M delipidated BSA (0.12 mg/ml), 2 mM L-glutamine, 1 mM sodium pyruvate and antibiotics. […] The optimal concentration for stimulation of T cells was determined for each batch of anti-CD3 mAb and Con A. The optimal range of Con A was particularly narrow in serum-free medium (0.5-0.2 μg/ml) and varied with the cell density used. […] Cellular proliferation was determined by [^3 H] thymidine uptake (0.5 uCi/well; New England Nuclear, Boston, Mass.) after the incubation times indicated for each experiment with a 4 hour labeling pulse. […]

Chemical stability of P3 = assay type: physicochemical
5/2 cells = assay: B-cell growth assay ([3H]-thymidine uptake), lymphoblastoid 5/2 cells in serum-free HB101 medium; assay type: cell-based, human
Description: Washed 5/2 cells (5,000/well) were incubated for 72 hours in HB101 medium with the indicated amounts of retinoids. DNA synthesis was measured by [^3 H] thymidine uptake. The measurements were done in triplicate. The SDs were <15%.
In FIGS. 4B to 4D, 5/2 cells were washed twice and seeded at a concentration of 150,000 cells/ml in HB 101 medium. Triplicate samples of 100 μl of cell suspension were removed daily and pulsed for 6 hours with [^3 H] thymidine. Means are shown. The SDs were never >20%.
P3 was purified as described in the Experimental Details section. 5/2 cells (5,000/well) were incubated for 72 hours in HB101 medium and refed with the indicated amount of retinoid daily. DNA synthesis was measured by [^3 H]-thymidine uptake. P3 is bioactive down to a concentration of 10-^8 M (FIG. 8). […] This is due either to chemical instability or to a more rapid metabolic degradation of P3 by the cells.
The human EBV-transformed B-cell line 5/2 was established from the peripheral blood of a healthy donor. The cell line was grown in RPMI 1640 supplemented with 8% fetal calf serum, L-glutamine (2 mM), and antibiotics. The cell line was tested regularly for mycoplasma infections and was consistently negative.
The assay system is a modification of the assay developed by Blazar et al. (12). […] Assays were done in 96 well microtiter plates in a final volume of 200 μl/well or in 25 cm^2 tissue culture flasks. The cells in the microtiter plates were cultured for 72 hours and cell growth was determined by labeling for the last 16 hours with 0.8 μCi/well of [^3 H]thymidine (sp. act. 6.7 Ci/mmol). Growth in the culture flasks was determined in three aliquots of 100 μl taken at 24 hours intervals and cultured in the presence of 0.8 μCi of [^3 H]thymidine for an additional 6 hour period. To determine the viable cell number, nine aliquots per time point were differentially counted in a Neubauer chamber in the presence of trypan blue.

[1] = Reversion of 14HRR to retinal; assay type: in vitro ADME
Raji = assay: Retinol metabolism, Raji; assay type: in vitro ADME, human
Description: (§5) Legend: 2.5×10^6 cells were grown overnight in 5 ml RPMI/10% FBS. The FBS was preincubated at room temperature with 14.4 uCi [^3 H] retinol (NEN) for 4h. The cell pellet was washed twice with PBS. The retinoid were extracted according to MClean et al. 90 and separated on an analytical c18 reverse phase column according to FIG. 7. The DPM were determined using an on-line scintillation counter.

[2] = cited from earlier work
SLA = assay: Retinol metabolism, SLA; assay type: in vitro ADME, mouse
Description: as §5

Row | Compound | response of CD4+ subset to anti-CD3 (CD4^+ T lymphocytes) | stimulation of lymph node T cells (lymph node T cells) | chemical stability (Chemical stability of P3) | growth of 5/2 cells (5/2 cells) | minimal effective concentration (5/2 cells; Homo sapiens, B-cell, 72 hours, refed daily, read-out: lowest bioactive concentration (bioactive down to)) [µM] | reversion to retinal [1] | Ester (% of taken up retinol) (Raji; 4°) [%] | P3 (% of taken up retinol) (Raji; 4°) [%] | Total cts. (Raji; 4°) | Ester (% of taken up retinol) (Raji; 37°) [%] | P3 (% of taken up retinol) (Raji; 37°) [%] | Total cts. (Raji; 37°) | half-life ([2]; serum-free cell culture (ref. 32)) [h] | half-life ([2]; serum-free tissue culture medium, estimated (ref. 32)) [h] | Ester (% of taken up retinol) (SLA) [%] | P3 (% of taken up retinol) (SLA) [%] | Total cts. (SLA)
1 | CC(C=CC=C(C)C(O)CO)=CC=C1C(C)=CCCC1(C)C (stereo not shown) [14HRR, 14-hydroxy-4,14-retro-retinol] | responded to the activating signal | effective over the same dose range as observed for thymocytes | unstable in chloroform and does not survive an acid extraction step | active and capable of replacing retinol | 0.01 | does not revert to retinal | – | – | – | – | – | – | – | – | – | – | –
2 | CC1=C(/C=C/C(C)=C/C=C/C(C)=C/C(=O)O)C(C)(C)CCC1 [all-trans retinoic acid] | – | nearly inert | – | – | – | – | – | – | – | – | – | – | – | – | – | – | –
3 | CC1=C(/C=C/C(C)=C/C=C/C(C)=C/CO)C(C)(C)CCC1 [retinol, all-trans retinol] | – | – | – | enable 5/2 cells to grow | – | – | 0 | 0 | 2.5 × 10^5 cts. | 14 | 3 | 4.0 × 10^5 cts. | < 24 | ~24 | 9 | 3 | 6.1 × 10^5 cts.
